Measurements taken from patent publication US20260218439A1, “METHOD OF TREATING OR REDUCING CANCER COMPRISING ADMINISTERING A COMPOUND 3-(BENZO[D][1,3]DIOXOL-5-YL)-7-(1-HYDROXYPROPAN-2-YL)-1-(1H-INDOLE-3-YL)-6,7-DIHYDRO-3H-OXAZOLE[3,4-A]PYRAZINE-5,8-DIONE” (BIOLAB SANUS FARMACEUTICA LTDA, priority 2019, published 2026).

How the values were obtained:
[1] = system: MNK45-human gastric cancer; test: Cell proliferation inhibition (CYQuant intracellular DNA), MNK45; assay type: cell-based; details: 72 hours
Method: (§1) For the execution of the assay, the compounds are diluted in DMSO 100% (v/v) at a concentration of 1000 μM and subsequently diluted in a Sodium Chloride solution 0.9% to obtain the storage solutions of interest for use in the assays. The final concentration of interest will be directly diluted in the cell culture medium. For the assay there are used the following tumor cell lineages: PC3-human prostate cancer cells; LNCAP-human prostate cancer cells; DU145-human prostate cancer; MNK45-human gastric cancer and RT4-human bladder cancer cells. The tumor cell lineages are maintained in culture according to standard procedures established by the Cell Bank of Rio de Janeiro (lineage place of origin) Procedure: • For the assay, the tumor cells are seeded in the concentration of 10.000 cells per well (final volume of the reaction of […]), the plate is incubated for 8 hours, for the cells to adhere to the wall of the wells. After this period, the plate is divided in groups: • (a) test group: […] of the samples were added (test compound) in the concentrations of interest; • (b) positive control group: […] of culture medium were added (100% of cell proliferation); • (c) negative control group: 200 mL of culture medium and […] of the vehicle used were added to dilute the compounds (without cells—zero proliferation); • (d) control group: […] were added of the vehicle used to dilute the compounds. This group is important to evaluate whether the vehicle used interferes in the cell proliferation. OBSERVATION: the treatment with the concentrations of samples (test compounds) and of the controls are carried out in triplicate. • Incubate the plate for 72 hours in a CO2 kiln at 37° C. • After the incubation period, add […] of the solution with DNA marker from the CYQuant Kit and incubate the plate, for 60 minutes, in a CO2 incubator at 37° C. The fluorescence intensity is determined using a fluorescence microplate reader with 485 nm excitation and 530 nm emission detection. The results obtained were normalized relative to the positive control group (100% proliferation). For the compounds there are prepared the storage solutions in the concentrations of: 100 nM, 1 μM, 3 μM, 5 μM, 10 μM and 30 μM (DMSO 10% v/v). While the final concentrations in the test are of: 10 nM, 100 nM, 300 nM, 500 nM, 1000 nM and 3000 nM (in DMSO 1% v/v).

[2] = system: PC3-human prostate cancer cells; test: Cell proliferation inhibition (CYQuant intracellular DNA), PC3; assay type: cell-based; details: for % Cell Proliferation Inhibition (intracellular DNA) PC-3 (average ± E.P.M.): 72 hours
Method: as §1

[3] = system: DU145-human prostate cancer; test: Cell proliferation inhibition (CYQuant intracellular DNA), DU145; assay type: cell-based; details: for % Cell Proliferation Inhibition (intracellular DNA) DU145 (average ± E.P.M.): 72 hours
Method: as §1

[4] = system: LNCAP-human prostate cancer cells; test: Cell proliferation inhibition (CYQuant intracellular DNA), LNCAP; assay type: cell-based; details: for % Cell Proliferation Inhibition (intracellular DNA) LNCAP (average ± E.P.M.): 72 hours
Method: as §1

PDE5A1 = biological target: T1, PDE5A1 (Homo sapiens, UniProt O76074); test: PDE5A1 fluorescence polarization enzyme assay (BPS Bioscience kit 60350); assay type: biochemical
T1 construct: purchased BPS Bioscience 60350
Method: The evaluation of the compound is studied using BPS Bioscience enzyme assay kit (catalogue 60350). The PDE5A1 Assay kit is designed for identification of PDE5A1 inhibitors using fluorescence polarization. The assay is based on the binding of a fluorescent nucleotide monophosphate generated by PDE5A1 enzyme to the binding agent.
In this methodology only two simple steps on a microtiter plate are required for PDE5A1 reactions. First, the fluorescently labeled cGMP is incubated with PDE5A1 for 1 hour. Second, the binding agent is added to the reaction mixture to produce a change in fluorescent polarization that can then be measured using a fluorescence reader equipped for the measurement of fluorescence polarization.
For the assay the storage reagent FAM-Cyclic-3′,5′-GMP (20 μM) is diluted with PDE assay buffer to achieve the solution with a […]; the PDE5A1 enzyme is thawed and diluted with the PDE buffer obtaining a PDE5A1 solution at 10 μg/mL.
The assay compounds are diluted with DMSO 100% (v/v) at a concentration of 1000 μM and subsequently diluted in a Sodium chloride 0.9% solution to obtain a curve of concentrations of interest for the assay. The compounds are diluted in concentrations of: 10 nM, 30 nM, 50 nM, 100 nM, 300 nM, 500 nM, 1 μM, 3 μM, 5 μM (DMSO 10% v/v).
The study is comprised of groups: (i) substrate control; (ii) positive control (KIT); (iii) samples in several concentrations; (iv) tadalafil (comparative control). Each parameter (group) is triple labeled.
• For the 4 groups there is added, to each microplate well, […] of the FAM-Cyclic-3′ reagent, 5′-GMP (200 μM). • To the substrate control group there is added, to each well, […] of vehicle (DMSO 10% v/v) and […] PDE Buffer. • To the positive control group there is added, to each well, […] of vehicle (DMSO 10% v/v). • To the tadalafil group: there is added 5 mL of the solution in the concentrations of interest. • To the test group there is added 5 mL of the sample solution (test compound)
OBSERVATION: the parameters tested are in triplicate.
To begin the reaction, add […] of the PDE5A1 enzyme (diluted as described above) to the microplate wells designated as Positive Control and Samples (test and tadalafil), and incubate the microplate, for 1 hour, at a temperature of 25° C.
After the incubation period, the reaction is interrupted by the addition, in all the wells, of […] of the binding agent solution and the microplate is incubated for 30 minutes, under light stirring, at room temperature. The reading of the microplate is carried out in Polarized Fluorescence (475-495 nm—excitation and 518-538 nm—emission detection) 500 nanoseconds integration time.

[5] = system: RT4-human bladder cancer cells; test: Cell proliferation inhibition (CYQuant intracellular DNA), RT4; assay type: cell-based; details: for % Cell Proliferation Inhibition (intracellular DNA) RT4 (average ± E.P.M.): 72 hours
Method: as §1

% of Inhibition (PDE5A1) (PDE5A1; compound 10 nM): 0%
% of Inhibition (PDE5A1) (PDE5A1; compound 30 nM): 0%
% of Inhibition (PDE5A1) (PDE5A1; compound 50 nM): 0%
% of Inhibition (PDE5A1) (PDE5A1; compound 100 nM): 0%
% of Inhibition (PDE5A1) (PDE5A1; compound 300 nM): 15 ± 3%
% of Inhibition (PDE5A1) (PDE5A1; compound 500 nM): 25 ± 3%
% of Inhibition (PDE5A1) (PDE5A1; compound 1000 nM): 55 ± 4%
% of Inhibition (PDE5A1) (PDE5A1; compound 3000 nM): 65 ± 2%
% of Inhibition (PDE5A1) (PDE5A1; compound 5000 nM): 78 ± 1%
concentration as from which PDE5 inhibition was observed (PDE5A1; tested 10 nM to 5000 nM): ≥ 300 nM
Substance: (R)-3-(benzo [d][1, 3]dioxol-5-yl)-7-((R)-1-hydroxypropan-2-yl)-1-(1H-indole-3-yl)-6, 7-dihydro-3H-oxazole [3, 4-a]pyrazine-5, 8-dione with (S)-3-(benzo [d][1,3]dioxol-5-yl)-7-((R)-1-hydroxypropan-2-yl)-1-(1H-indole-3-yl)-6, 7-dihydro-3H-oxazole [3, 4-a]pyrazine-5, 8-dione [BL-380]
% Cell Proliferation Inhibition (intracellular DNA) MNK45 (average ± E.P.M.) ([1]; MNK45, 100 nM): 7 ± 2%
% Cell Proliferation Inhibition (intracellular DNA) MNK45 (average ± E.P.M.) ([1]; MNK45, 300 nM): 0%
% Cell Proliferation Inhibition (intracellular DNA) MNK45 (average ± E.P.M.) ([1]; MNK45, 500 nM): 0%
% Cell Proliferation Inhibition (intracellular DNA) MNK45 (average ± E.P.M.) ([1]; MNK45, 1000 nM): 0%
% Cell Proliferation Inhibition (intracellular DNA) MNK45 (average ± E.P.M.) ([1]; MNK45, 3000 nM): 16 ± 5%
antiproliferative effect (result in words) ([2]; PC3 prostate cancer tumor lineage): presented antiproliferative effect
% Cell Proliferation Inhibition (intracellular DNA) PC-3 (average ± E.P.M.) ([2]; PC-3, 10 nM): 39 ± 6%
% Cell Proliferation Inhibition (intracellular DNA) PC-3 (average ± E.P.M.) ([2]; PC-3, 100 nM): 25 ± 5%
% Cell Proliferation Inhibition (intracellular DNA) PC-3 (average ± E.P.M.) ([2]; PC-3, 300 nM): 28 ± 2%
% Cell Proliferation Inhibition (intracellular DNA) PC-3 (average ± E.P.M.) ([2]; PC-3, 500 nM): 48 ± 6%
% Cell Proliferation Inhibition (intracellular DNA) PC-3 (average ± E.P.M.) ([2]; PC-3, 1000 nM): 40 ± 3%
% Cell Proliferation Inhibition (intracellular DNA) PC-3 (average ± E.P.M.) ([2]; PC-3, 3000 nM): 54 ± 4%
% Cell Proliferation Inhibition (intracellular DNA) DU145 (average ± E.P.M.) ([3]; DU145, 100 nM): 12 ± 4%
% Cell Proliferation Inhibition (intracellular DNA) DU145 (average ± E.P.M.) ([3]; DU145, 300 nM): 10 ± 5%
% Cell Proliferation Inhibition (intracellular DNA) DU145 (average ± E.P.M.) ([3]; DU145, 500 nM): 12 ± 2%
% Cell Proliferation Inhibition (intracellular DNA) DU145 (average ± E.P.M.) ([3]; DU145, 1000 nM): 10 ± 3%
% Cell Proliferation Inhibition (intracellular DNA) DU145 (average ± E.P.M.) ([3]; DU145, 3000 nM): 31 ± 5%
antiproliferative effect (result in words) ([3]; DU145 prostate cancer tumor lineage): presented antiproliferative effect
antiproliferative effect (result in words) ([4]; LNCAP prostate cancer tumor lineage): presented antiproliferative effect
% Cell Proliferation Inhibition (intracellular DNA) LNCAP (average ± E.P.M.) ([4]; 10 nM): 26 ± 10%
% Cell Proliferation Inhibition (intracellular DNA) LNCAP (average ± E.P.M.) ([4]; 100 nM): 12 ± 3%
% Cell Proliferation Inhibition (intracellular DNA) LNCAP (average ± E.P.M.) ([4]; 300 nM): 29 ± 6%
% Cell Proliferation Inhibition (intracellular DNA) LNCAP (average ± E.P.M.) ([4]; 500 nM): 27 ± 2%
% Cell Proliferation Inhibition (intracellular DNA) LNCAP (average ± E.P.M.) ([4]; 1000 nM): 37 ± 2%
% Cell Proliferation Inhibition (intracellular DNA) LNCAP (average ± E.P.M.) ([4]; 3000 nM): 48 ± 6%
PDE5 inhibition (result in words) (PDE5A1; concentration series): capable of inhibiting the PDE5 in a dose-dependent manner
% Cell Proliferation Inhibition (intracellular DNA) RT4 (average ± E.P.M.) ([5]; RT4, 100 nM): 8 ± 6%
% Cell Proliferation Inhibition (intracellular DNA) RT4 (average ± E.P.M.) ([5]; RT4, 300 nM): 5 ± 5%
% Cell Proliferation Inhibition (intracellular DNA) RT4 (average ± E.P.M.) ([5]; RT4, 500 nM): 3 ± 5%
% Cell Proliferation Inhibition (intracellular DNA) RT4 (average ± E.P.M.) ([5]; RT4, 1000 nM): 3 ± 1%
% Cell Proliferation Inhibition (intracellular DNA) RT4 (average ± E.P.M.) ([5]; RT4, 3000 nM): 58 ± 4%
antiproliferative effect (result in words) ([5]; RT4 bladder cancer tumor lineage): presented antiproliferative effect
